We go through one substance from US9709558B2, “Compound arrays for sample profiling” (priority 2009, dated 2017).

Experiment [1] relates to influenza A/PR/8/34. The format is in vivo, BALB/c mice. Particulars: lethal challenge with influenza A/PR/8/34.
The subject of experiment [2] is KLH. Kind of experiment: Anti-KLH serum IgG ELISA in immunized mice. The format is in vivo. Particulars: archived murine serum samples. In general terms: ELISA stands for enzyme-linked immunosorbent assay.
Experiment [3] has as its system whole virus. Kind of experiment: Serum IgG ELISA against whole virus in immunized mice. The format is in vivo. Particulars: archived murine serum samples.

With keyhole limpet hemocyanin [KLH], the “outcome following lethal challenge” value in experiment [1] is on record as “no benefit over naives”. Further, in experiment [2], the “average anti-KLH IgG titer” value is reported as 819,000. Moreover, the “average IgG titer against whole virus” value in experiment [3] amounted to 800.
